# Results taken from patent US9974778B2, “Substituted pyridinones as MGAT2 inhibitors” (BRISTOL-MYERS SQUIBB COMPANY, priority 2014, dated 2018).
# Molecular target: T1, Human MGAT-2 (Homo sapiens, UniProt Q3SYC2)
# T1 construct: made in house; host or cells: Sf9 cells (membrane preparation)
# Test: MGAT LCMS Assay
# Type: biochemical
# Conditions: human MGAT2 membranes expressed in Sf9 cells; 100 μM 2-oleoylglycerol, 15 μM oleoyl-coenzyme A; read-out: h-MGAT LCMS IC50
# Procedure: Assay plates were run through a fully automated robotics system and shaken for 5 seconds every minute for a total 10 minutes. The reactions were then quenched with 120 μL of ice cold methanol containing 1 μg/mL 1,2-distearoyl-rac-glycerol as the internal standard. Plates were shaken for 2 minutes and spun down to remove protein precipitation. After the spin, samples were transferred to LC/MS compatible PCR plates. For LC/MS analysis, a ThermoFisher Surveyor pump, utilizing a Waters […]® C8, 50×2.1 mm column, was used for the chromatography of enzyme products. The buffer system consists of 0.1% formic acid in water with a mobile phase consisting 0.1% formic acid in methanol. […] The first 0.5 minutes of each injection was diverted to waste to eliminate the presence of Phosphate buffer in the enzymatic reaction. The column was run at 0.6 mL/min and a temperature of 65° C. Mass spectrometry analysis of the samples was performed on a ThermoFisher Quantum Triple quad utilizing APCI (+) as the mode of ionization. […] The ratio of Diolein to internal standard (Peak Area Ratio) is utilized to calculate IC50 values.
# T1 sequence (Q3SYC2 whole entry): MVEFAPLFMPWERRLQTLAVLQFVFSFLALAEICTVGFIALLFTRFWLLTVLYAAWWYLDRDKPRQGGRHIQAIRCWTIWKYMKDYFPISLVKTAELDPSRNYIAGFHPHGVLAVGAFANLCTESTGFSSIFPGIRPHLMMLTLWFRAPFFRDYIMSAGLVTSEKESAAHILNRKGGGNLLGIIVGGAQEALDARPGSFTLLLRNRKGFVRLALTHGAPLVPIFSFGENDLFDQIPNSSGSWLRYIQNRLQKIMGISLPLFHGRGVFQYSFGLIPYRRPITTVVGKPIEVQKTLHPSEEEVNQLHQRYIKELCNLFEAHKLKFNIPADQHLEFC
compound,measurement,value
"5-Chloro-6-cyclohexyl-N-(4-methoxyphenyl)-2-oxo-4-(p- tolyl)-1,2-dihydropyridine-3-carboxamide [Example 35]",IC50,288 nM
"COc1ccc(NC(=O)c2c(-c3ccc(C)cc3)cc(-c3ccc(OCCCC(F)(F)F)cc3)[nH]c2=O)cc1 [Example 2, N-(4-Methoxyphenyl)-2-oxo-4-(p-tolyl)-6-(4-(4,4,4-trifluorobutoxy)phenyl)-1,2-dihydropyridine-3-carboxamide]",IC50,30 nM
"COc1ccc(NC(=O)c2c(-c3ccc(C)cc3)c(F)c(-c3ccc(OCCCC(F)(F)F)cc3)[nH]c2=O)cc1 [Example 3, 5-Fluoro-N-(4-methoxyphenyl)-2-oxo-4-(p-tolyl)-6-(4-(4,4,4-trifluorobutoxy)phenyl)-1,2-dihydropyridine-3-carboxamide]",IC50,19 nM
"COc1ccc(NC(=O)c2c(-c3ccc(C)cc3)cc(-c3nc(-c4ccccc4)oc3C)[nH]c2=O)cc1 [Example 4, N-(4-Methoxyphenyl)-6-(5-methyl-2-phenyloxazol-4-yl)-2-oxo-4-(p-tolyl)-1,2-dihydropyridine-3-carboxamide]",IC50,5 nM
"CCOc1ccc(NC(=O)c2c(-c3ccc(C)cc3)cc(-c3ccc(OCCCC(F)(F)F)cc3)[nH]c2=O)cc1 [Example 5, N-(4-Ethoxyphenyl)-2-oxo-4-(p-tolyl)-6-(4-(4,4,4-trifluorobutoxy)phenyl)-1,2-dihydropyridine-3-carboxamide]",IC50,21 nM
"Cc1ccc(-c2c(Br)c(-c3ccc(OCCCC(F)(F)F)cc3)[nH]c(=O)c2-c2nnn[nH]2)cc1 [Example 6, 5-Bromo-3-(1H-tetrazol-5-yl)-4-(p-tolyl)-6-(4-(4,4,4-trifluorobutoxy)phenyl)pyridin-2(1H)-one]",IC50,79 nM
"Cc1ccc(-c2c(C)c(-c3ccc(OCCCC(F)(F)F)cc3)[nH]c(=O)c2-c2nnn[nH]2)cc1 [Example 7, 5-Methyl-3-(1H-tetrazol-5-yl)-4-(p-tolyl)-6-(4-(4,4,4-trifluorobutoxy)phenyl)pyridin-2(1H)-one]",IC50,9 nM
"CCOc1ccc(NC(=O)c2c(-c3cnc(N(C)C)s3)cc(C3CCCCC3)[nH]c2=O)cc1 [Example 8, 6-Cyclohexyl-4-(2-(dimethylamino)thiazol-5-yl)-N-(4-ethoxyphenyl)-2-oxo-1,2-dihydropyridine-3-carboxamide]",IC50,50 nM
"CCOc1ccc(NC(=O)c2c(-c3cnc(N(C)C)s3)cc(C3(O)CCCCC3)[nH]c2=O)cc1 [Example 9, 4-(2-(Dimethylamino)thiazol-5-yl)-N-(4-ethoxyphenyl)-6-(1-hydroxycyclohexyl)-2-oxo-1,2-dihydropyridine-3-carboxamide]",IC50,293 nM
"CCOc1ccc(NC(=O)c2c(-c3cnc(N(C)C)s3)cc(C3(F)CCCCC3)[nH]c2=O)cc1 [Example 10, 4-(2-(Dimethylamino)thiazol-5-yl)-N-(4-ethoxyphenyl)-6-(1-fluorocyclohexyl)-2-oxo-1,2-dihydropyridine-3-carboxamide]",IC50,17 nM
"CC(C)(C)c1ccc(-c2cc(-c3ccc(OCCCC(F)(F)F)cc3)[nH]c(=O)c2C(=O)O)cc1 [Example 11, 4-(4-(tert-Butyl)phenyl)-2-oxo-6-(4-(4,4,4-trifluorobutoxy)phenyl)-1,2-dihydropyridine-3-carboxylic acid]",IC50,461 nM
"CC(C)(C)c1ccc(-c2cc(-c3ccc(OCCCC(F)(F)F)cc3)[nH]c(=O)c2C(=O)NS(=O)(=O)C2CC2)cc1 [Example 12, 4-(4-(tert-Butyl)phenyl)-N-(cyclopropylsulfonyl)-2-oxo-6-(4-(4,4,4-trifluorobutoxy)phenyl)-1,2-dihydropyridine-3-carboxamide]",IC50,56 nM
"CCCCCc1ccc(-c2cc(-c3ccc(C)cc3)c(NC(=O)c3ccccc3)c(=O)[nH]2)cc1 [Example 14, N-(2-Oxo-6-(4-pentylphenyl)-4-(p-tolyl)-1,2-dihydropyridin-3-yl)benzamide]",IC50,100 nM
"CCOc1ccc(NC(=O)c2c(-c3ccc(C)cc3)c(I)c(C3CCCCC3)[nH]c2=O)cc1 [Example 15, 6-Cyclohexyl-N-(4-ethoxyphenyl)-5-iodo-2-oxo-4-(p-tolyl)-1,2-dihydropyridine-3-carboxamide]",IC50,5 nM
"Cc1ccc(-c2c(F)c(-c3ccc(OCCCC(F)(F)F)cc3)[nH]c(=O)c2-c2nnn[nH]2)cc1 [Example 17, 5-Fluoro-3-(1H-tetrazol-5-yl)-4-(p-tolyl)-6-(4-(4,4,4-trifluorobutoxy)phenyl)pyridin-2(1H)-one]",IC50,298 nM
"Cc1ccc(-c2c(Cl)c(-c3ccc(OCCCC(F)(F)F)cc3)[nH]c(=O)c2-c2nnn[nH]2)cc1 [Example 19, 5-Chloro-3-(1H-tetrazol-5-yl)-4-(p-tolyl)-6-(4-(4,4,4-trifluorobutoxy)phenyl)pyridin-2(1H)-one]",IC50,100 nM
"CCc1ccc(-c2cc(-c3ccc(OCCCC(F)(F)F)cc3F)[nH]c(=O)c2-c2nn[nH]n2)s1 [Example 20, 4-(5-Ethylthiophen-2-yl)-6-(2-fluoro-4-(4,4,4-trifluorobutoxy)phenyl)-3-(2H-tetrazol-5-yl)pyridin-2(1H)-one]",IC50,5 nM
"CCc1ccc(-c2cc(-c3ccc(OCCCC(F)(F)F)cc3)[nH]c(=O)c2C(=O)NS(C)(=O)=O)s1 [Example 21, 4-(5-Ethylthiophen-2-yl)-N-(methylsulfonyl)-2-oxo-6-(4-(4,4,4-trifluorobutoxy)phenyl)-1,2-dihydropyridine-3-carboxamide]",IC50,21 nM
"CCc1ccc(-c2cc(-c3ccc(OCCCC(F)(F)F)cc3Cl)[nH]c(=O)c2-n2nn[nH]c2=O)s1 [Example 22, 6-(2-Chloro-4-(4,4,4-trifluorobutoxy)phenyl)-4-(5-ethylthiophen-2-yl)-3-(5-oxo-4,5-dihydro-1H-tetrazol-1-yl)pyridin-2(1H)-one]",IC50,252 nM
"CCCCCc1ccc(-c2cc(-c3ccc(C)cc3)c(C(=O)Nc3cccnc3)c(=O)[nH]2)cc1 [Example 23, 2-Oxo-6-(4-pentylphenyl)-N-(pyridin-3-yl)-4-(p-tolyl)-1,2-dihydropyridine-3-carboxamide]",IC50,24 nM
"CCOc1ccc(NC(=O)c2c(-c3ccc(C)cc3)c(C)c(-c3ccc(OCCCC(F)(F)F)cc3)[nH]c2=O)cc1 [Example 24, N-(4-Ethoxyphenyl)-5-methyl-2-oxo-4-(p-tolyl)-6-(4-(4,4,4-trifluorobutoxy)phenyl)-1,2-dihydropyridine-3-carboxamide]",IC50,39 nM
"CCOc1ccc(NC(=O)c2c(-c3ccc(C)cc3)c(C)c(C3CCCCC3)[nH]c2=O)cc1 [Example 25, 6-Cyclohexyl-N-(4-ethoxyphenyl)-5-methyl-2-oxo-4-(p-tolyl)-1,2-dihydropyridine-3-carboxamide]",IC50,72 nM
"C=Cc1c(-c2ccc(CCCCC)cc2)[nH]c(=O)c(C(=O)Nc2ccc(OCC)cc2)c1-c1ccc(C)cc1 [Example 26, N-(4-Ethoxyphenyl)-2-oxo-6-(4-pentylphenyl)-4-(p-tolyl)-5-vinyl-1,2-dihydropyridine-3-carboxamide]",IC50,82 nM
"CCCCCc1ccc(-c2cc(-c3ccc(C)cc3)c(C(=O)Nc3ccc(OCC)cc3)c(=O)[nH]2)cc1 [Example 27, N-(4-Ethoxyphenyl)-2-oxo-6-(4-pentylphenyl)-4-(p-tolyl)-1,2-dihydropyridine-3-carboxamide]",IC50,86 nM
"CCOc1ccc(NC(=O)c2c(-c3ccc(C)cc3)cc(C3CCCCC3)[nH]c2=O)cc1 [Example 28, 6-Cyclohexyl-N-(4-ethoxyphenyl)-2-oxo-4-(p-tolyl)-1,2-dihydropyridine-3-carboxamide]",IC50,137 nM
"CCOc1ccc(NC(=O)c2c(-c3ccc(C)cc3)cc(C3CCCC3)[nH]c2=O)cc1 [Example 29, 6-Cyclopentyl-N-(4-ethoxyphenyl)-2-oxo-4-(p-tolyl)-1,2-dihydropyridine-3-carboxamide]",IC50,144 nM
"CCCCCc1ccc(-c2cc(-c3ccc(C)cc3)c(-c3nn[nH]n3)c(=O)[nH]2)cc1 [Example 30, 6-(4-Pentylphenyl)-3-(2H-tetrazol-5-yl)-4-(p-tolyl)pyridin-2(1H)-one]",IC50,150 nM
"CC/C=C/c1c(-c2ccc(CCCCC)cc2)[nH]c(=O)c(C(=O)Nc2ccc(OCC)cc2)c1-c1ccc(C)cc1 [Example 31, (E)-5-(But-1-en-1-yl)-N-(4-ethoxyphenyl)-2-oxo-6-(4-pentylphenyl)-4-(p-tolyl)-1,2-dihydropyridine-3-carboxamide]",IC50,178 nM
"CCCCCc1ccc(-c2[nH]c(=O)c(C(=O)Nc3ccc(OCC)cc3)c(-c3ccc(C)cc3)c2-c2ccccc2)cc1 [Example 32, N-(4-Ethoxyphenyl)-2-oxo-6-(4-pentylphenyl)-5-phenyl-4-(p-tolyl)-1,2-dihydropyridine-3-carboxamide]",IC50,193 nM
"CCCCCc1ccc(-c2cc(-c3ccc(C)cc3)c(C(=O)Nc3ccccc3)c(=O)[nH]2)cc1 [Example 33, 2-Oxo-6-(4-pentylphenyl)-N-phenyl-4-(p-tolyl)-1,2-dihydropyridine-3-carboxamide]",IC50,218 nM
"COc1ccc(NC(=O)c2c(-c3ccc(C)cc3)cc(C3CCCCC3)[nH]c2=O)cc1 [Example 34, 6-Cyclohexyl-N-(4-methoxyphenyl)-2-oxo-4-(p-tolyl)-1,2-dihydropyridine-3-carboxamide]",IC50,223 nM
"Cc1ccc(-c2c(Br)c(-c3ccc(OCCCC(F)(F)F)cc3)[nH]c(=O)c2-c2nn[nH]n2)cc1C [Example 36, 5-Bromo-4-(3,4-dimethylphenyl)-3-(2H-tetrazol-5-yl)-6-(4-(4,4,4-trifluorobutoxy)phenyl)pyridin-2(1H)-one]",IC50,311 nM
